Measurements published in patent US20260027226A1 (Pheon Therapeutics Ltd, priority 2022, published 2026).
Entries after “also recorded” stand apart in the source; their conditions may differ.

How the values were obtained:
[1] = system: Papain; experiment: Papain (a Cathepsin B surrogate); details: up to 96 hours
[2] = Control incubation in buffer without S9; type: in vitro ADME
Description: The control incubations include each ADC without the addition of S9.

[3] = Comparative repeat-dose rat toxicity study; type: in vivo; details: DAR 8 on Trastuzumab backbone, 20 or 60 mg/kg; for tolerability: IV once every 3 weeks, two doses
[4] = system: HexA DNA fragment; experiment: DNA footprinting; type: binding; details: for DNA-binding site sequence: X any base, W adenine or thymine
Description: Footprinting reactions were performed as using previously described methods using the DNA fragments HexA and HexB, which together contain all 64 symmetrical hexanucleotide sequences, and MS1 that contains all possible […] tetranucleotide sequences. The DNA fragments were obtained by cutting the parent plasmids with HindIII and SacI (for HexA and MS1) or EcoRI and PstI (for HexB), and were labelled at the “-end of the HindIII or EcoRI sites with [α-^32P]dATP using reverse transcriptase or exo− Klenow fragment. After gel purification, the radiolabelled DNA was dissolved in 10 mM Tris-HCl pH 7.5 containing 0.1 mM EDTA, at a concentration of about 10 c.p.s per μL as determined on a hand held Geiger counter. 1.5 μL of radiolabelled DNA was mixed with 1.5 μL ligand that had been freshly diluted in 10 mM Tris-HCl pH 7.5, containing 10 mM NaCl. The complexes were left to equilibrate for at least 12 hours before digesting with 2 μL dNase I (final concentration about 0.01 units/mL). The reactions were stopped after 1 minute by adding 4 μL of formamide containing 10 mM EDTA and bromophenol blue (0.1% w/v). The samples were then heated at 100° C. for 3 minutes before loading onto 8% denaturing polyacrylamide gels containing 8 M urea. Gels were fixed in 10% acetic acid, transferred to 3 MM paper, dried and exposed to a phosphor screen overnight, before analysing with a Typhoon phosphorimager
The DNA sequence selectivity profile of the molecules was investigated using a modification of a previously established DNA footprinting assay. Following an overnight incubation of the ligand-DNA complexes, the mixture was mixed with strand separation buffer containing 10 mM EDTA, 10 mM NaOH, 0.1% bromophenol blue, 80% formamide and incubated at 100° C. for 3 min. The mixture was then immediately cooled on ice and run on an 8% denaturing gel. […] The possible adducts formed within the HexA sequences are shown in FIGS. 20 and 21, respectively.

[5] = system: linear double-stranded TyrT fragment; experiment: DNA cross-linking assay; type: biochemical; details: overnight incubation at 37° C., 10 μM to 0.1 nM
Description: After overnight incubation, the samples were mixed with 7 μL loading solution (80% formamide containing 10 mM EDTA, 10 mM NaOH, 0.1% bromophenol blue) and incubated at 65° C. for 5 min. Control 1 (C1) for native double-stranded DNA consisted of 1.5 μL labelled DNA, 1.5 μL 10 mM Tris-HCl, pH 7.5 containing 0.1 mM EDTA and 7 μL 1× loading dye. Control 2 (C2) for denatured native single-stranded DNA was composed of 1.5 μL labelled DNA, 1.5 μL 10 mM Tris-HCl, pH 7.5 containing 0.1 mM EDTA which was incubated at 65° C. for 5 min. Control 3 (C3) for native double-stranded DNA consisted of 1.5 μL labelled DNA, 1.5 μL 10 mM Tris-HCl, pH 7.5 containing 0.1 mM EDTA and 7 μL SSB. Control 4 (C4) for denatured native single-stranded DNA was composed of 1.5 μL labelled DNA, 1.5 μL 10 mM Tris-HCl, pH 7.5 containing 0.1 mM EDTA and 7 μL SSB which was incubated at 65° C. for 5 min. Separation was performed on a 7.5% denaturing polyacrylamide gel (20 cm long, 0.3 mm thick) at 500V for about 4 h until the dye reached the bottom of the gel. The gel plates were then separated, the gels fixed by immersing in 10% (v/v) acetic acid, followed by transfer to Whatmann 3 MM paper and drying under vacuum at 80° C. […]
The ability of 26 to cross-link DNA was evaluated using an assay involving a linear double-stranded TyrT fragment (FIG. 17). […]

[6] = cited from earlier work
[7] = Buffer without S9 (50 mM Na-acetate, pH 5.0); details: 37° C., up to 24 h
[8] = Pooled liver S9 fraction, 50 mM Na-acetate, pH 5.0; details: 37° C., up to 24 h

1-(3-(2,5-Dioxo-2,5-dihydro-1H-pyrrol-1-yl)propanamido)-N-((2S)-1-(((2S)-1-(((1S,9S)-9-ethyl-5-fluoro-9-hydroxy-4-methyl-10,13-dioxo-2,3,9,10,12,13,13a,14-octahydro-1H-benzo[de]pyrano[″,″:5,6]indeno[1,2-b]quinolin-1-yl)amino)-1-oxopropan-2-yl)amino)-3-methyl-1-oxobutan-2-yl)-3,6,9,12,15,18,21,24-octaoxaheptacosan-27-amide
fragment found [1]: Val-Ala-Exatecan | not cleaved [1]: the free payload was not liberated

CC[C@@]1(O)C(=O)OCc2c1cc1n(c2=O)Cc2c-1nc1cc(F)c(C)c3c1c2[C@@H](NC(=O)[C@H](C)NC(=O)[C@@H](NC(=O)CCOCCOCCOCCOCCOCCOCCOCCOCCNC(=O)CCN1C(=O)C=CC1=O)C(C)C)CC3 [Compound 30, 1-(3-(2,5-Dioxo-2,5-dihydro-1H-pyrrol-1-yl)propanamido)-N-((2S)-1-(((2S)-1-(((1S,9S)-9-ethyl-5-fluoro-9-hydroxy-4-methyl-10,13-dioxo-2,3,9,10,12,13,13a,14-octahydro-1H-benzo[de]pyrano[″,″:5,6]indeno[1,2-b]quinolin-1-yl)amino)-1-oxopropan-2-yl)amino)-3-methyl-1-oxobutan-2-yl)-3,6,9,12,15,18,21,24-octaoxaheptacosan-27-amide]
LC/MS peak area of released payload (exatecan; 4NH2-exatecan; DXd; DM1) ([2]; Buffer without S9, 180 min): 26,179 | LC/MS peak area of released payload (exatecan; 4NH2-exatecan; DXd; DM1) ([2]; Buffer without S9, 360 min): 51,267 | LC/MS peak area of released payload (exatecan; 4NH2-exatecan; DXd; DM1) ([2]; Buffer without S9, 1440 min): 59,452 | changes in hemopoietic system / red cell parameters [3]: negligible effects | tolerability [3]: well tolerated

CC[C@@]1(O)C(=O)OCc2c1cc1n(c2=O)Cc2c-1nc1cc(F)c(C)c3c1c2[C@@H](NC(=O)CO)CC3 [Dxd, reference compound]
tolerability [3]: well tolerated

C=CCOC(=O)N1c2cc(OCCCC(=O)Nc3cc(C(=O)Nc4ccc(NC(=O)C(F)(F)F)cc4)n(C)c3)c(OC)cc2C(=O)N2CCCC[C@H]2C1OC1CCCCO1 (stereo partly drawn) [Formula 17, Allyl (6aS)-2-methoxy-3-(4-((1-methyl-5-((4-(2,2,2-trifluoroacetamido)phenyl)carbamoyl)-1H-pyrrol-3-yl)amino)-4-oxobutoxy)-12-oxo-6-((tetrahydro-2H-pyran-2-yl)oxy)-6,6a,7,8,9,10-hexahydrobenzo[e]pyrido[1,2-a][1,4]diazepine-5(12H)-carboxylate]
DNA-binding site sequence [4]: XGXWWWW

COc1cc2c(cc1OCCCC(=O)Nc1cc(C(=O)Nc3ccc(N)cc3)n(C)c1)N=C[C@@H]1CCCCN1C2=O [Formula 19, (S)—N-(4-Aminophenyl)-4-(4-((2-methoxy-12-oxo-6a,7,8,9,10,12-hexahydrobenzo[e]pyrido[1,2-a][1,4]diazepin-3-yl)oxy)butanamido)-1-methyl-1H-pyrrol-2-carboxamide]
DNA interstrand cross-linking [5]: incapable of cross-linking DNA

COc1cc2c(cc1OCCCC(=O)Nc1cc(C(=O)Nc3ccc(-c4cc(C(=O)Nc5ccc(N)cc5)n(C)c4)cc3)n(C)c1)N=C[C@@H]1CCCCN1C2=O [Formula 26, (S)—N-(4-aminophenyl)-4-(4-(4-(4-((2-methoxy-12-oxo-6a,7,8,9,10,12-hexahydrobenzo[e]pyrido[1,2-a][1,4]diazepin-3-yl)oxy)butanamido)-1-methyl-1H-pyrrol-2-carboxamido)phenyl)-1-methyl-1H-pyrrol-2-carboxamide]
DNA interstrand cross-linking [5]: Cross-links are not detectable at any concentration | preferred binding sites in HexA ([4]; DNase I footprinting): only five preferred sites | DNA-binding site sequence [4]: XGXWWWW

Adcetris
ADC cyno t112 [6]: 45 to 72 h

Trastuzumab-Mal-GGFG-Dxd
fragment found [7]: DXd, minor, 0 min; also recorded: exatecan, minor | fragment found ([8]; Cynomolgus monkey): DXd, minor, 0 min; also recorded: Cys-Mc-GGFG-DXd; also recorded: exatecan, minor | fragment found ([8]; Human): DXd, 0 min; also recorded: Cys-Mc-GGFG-DXd; also recorded: exatecan, minor
